EC50 data for 15 compounds are collected here from ChEMBL document CHEMBL1145783, “Development of an orexin-2 receptor selective agonist, [Ala(11), D-Leu(15)]orexin-B” (Bioorg Med Chem Lett, 2003).

Residues, ends and D or L forms follow the SMILES beside them. *: point of attachment. X1 = C[C@H](NC(=O)N1CCC[C@H]1C(=O)NCC(=O)N[C@@H](CO)C(=O)N[C@@H](CCCN=C(N)N)C(N)=O)C(=O)NC(=O)CN*

This assay addresses T1, Orexin receptor type 2 (Homo sapiens, UniProt O43614).
T1 sequence (O43614 whole entry): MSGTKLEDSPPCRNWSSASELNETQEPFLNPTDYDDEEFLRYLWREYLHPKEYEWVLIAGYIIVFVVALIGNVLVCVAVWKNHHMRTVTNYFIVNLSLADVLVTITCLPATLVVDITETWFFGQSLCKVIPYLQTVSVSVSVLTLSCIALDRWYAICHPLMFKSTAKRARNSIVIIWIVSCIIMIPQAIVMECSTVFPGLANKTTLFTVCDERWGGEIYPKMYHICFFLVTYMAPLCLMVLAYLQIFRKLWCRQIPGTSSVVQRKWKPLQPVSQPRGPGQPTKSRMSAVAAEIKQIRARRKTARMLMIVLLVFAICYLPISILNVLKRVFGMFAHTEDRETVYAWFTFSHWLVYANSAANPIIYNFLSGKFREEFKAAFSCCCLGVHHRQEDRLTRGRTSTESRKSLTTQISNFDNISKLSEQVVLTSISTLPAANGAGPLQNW
Briefly: Agonist activity against human orexin 2 receptor; EC50; nM. It is filed as functional.
Broadly, the EC50 is the concentration giving half of the maximal effect. The low end stands for an effect from little substance, the high end for a need for much substance. In the case of `CC[C@H](C)[C@H](NC(=O)[C@H](CC(C)C)NC(=O)[C@@H](NC(=O)[C@@H](N)CCSC)[C@@H](C)O)C(=O)NCC(=O)N[C@@H](C)C(=O)N[C@@H](C)C(=O)N[C@@H](Cc1c[nH]cn1)C(=O)N[C@@H](CC(N)=O)C(=O)NCC(=O)N[C@@H](CO)C(=O)N[C@@H](C)C(=O)N[C@@H](CCC(N)=O)C(=O)N[C@@H](CC(C)C)C(=O)N[C@@H](CC(C)C)C(=O)N[C@@H](CCCN=C(N)N)C(=O)N[C@@H](CCC(N)=O)C(=O)N[C@@H](CC(C)C)C(=O)N[C@@H](CCCN=C(N)N)C(=O)NCC(=O)N[C@@H](CCC(N)=O)C(=O)N[C@@H](CC(C)C)C(=O)N[C@@H](C)C(=O)N1CCC[C@H]1C(=O)N1CCC[C@H]1C(=O)NCC(=O)N[C@@H](CO)C(=O)N[C@@H](CCCN=C(N)N)C(N)=O`, a half-maximal effect (EC50) was put at 0.12 nM.
`CC[C@H](C)[C@@H](NC(=O)[C@H](CC(C)C)NC(=O)[C@@H](NC(=O)[C@@H](N)CCSC)[C@@H](C)O)C(=O)NCC(=O)N[C@@H](C)C(=O)N[C@@H](C)C(=O)N[C@@H](Cc1c[nH]cn1)C(=O)N[C@@H](CC(N)=O)C(=O)NCC(=O)N[C@@H](CO)C(=O)N[C@@H](C)C(=O)N[C@@H](CCC(N)=O)C(=O)N[C@@H](CC(C)C)C(=O)N[C@@H](CC(C)C)C(=O)N[C@@H](CCCN=C(N)N)C(=O)N[C@@H](CCC(N)=O)C(=O)N[C@@H](CC(C)C)C(=O)N[C@@H](CCCN=C(N)N)C(=O)NCC(=O)N[C@@H](CCC(N)=O)C(=O)N[C@@H](CC(C)C)C(=O)NCC(=O)N1CCC[C@H]1C(=O)N1CCC[C@H]1C(=O)NCC(=O)N[C@@H](CO)C(=O)N[C@@H](CCCN=C(N)N)C(N)=O` came in with an EC50 above 1400 nM.
Regarding H-MTLIGAGHNGSAQLLRQLRGQLGPPGSR-NH2, the response was half-maximal at 0.27 nM (EC50).
`CC[C@H](C)[C@H](NC(=O)[C@H](CC(C)C)NC(=O)[C@@H](NC(=O)[C@@H](N)CCSC)[C@@H](C)O)C(=O)NCC(=O)N[C@@H](C)C(=O)N[C@@H](C)C(=O)N[C@@H](Cc1c[nH]cn1)C(=O)N[C@@H](CC(N)=O)C(=O)NCC(=O)N[C@@H](CO)C(=O)N[C@@H](C)C(=O)N[C@@H](CCC(N)=O)C(=O)N[C@@H](CC(C)C)C(=O)N[C@@H](CC(C)C)C(=O)N[C@@H](CCCN=C(N)N)C(=O)N[C@@H](CCC(N)=O)C(=O)N[C@@H](CC(C)C)C(=O)N[C@@H](CCCN=C(N)N)C(=O)N[C@@H](C)C(=O)N[C@@H](CCC(N)=O)C(=O)N[C@@H](CC(C)C)C(=O)NCC(=O)N1CCC[C@H]1C(=O)N1CCC[C@H]1C(=O)NCC(=O)N[C@@H](CO)C(=O)N[C@@H](CCCN=C(N)N)C(N)=O` yielded an EC50 of 0.2 nM.
Consider H-MTLIGAAHNGSAQALRQLRGQLGPPGSR-NH2, for which the half-maximal effective concentration (EC50) was determined as 2.2 nM.
Compound `CC[C@H](C)[C@H](NC(=O)[C@H](CC(C)C)NC(=O)[C@@H](NC(=O)[C@@H](N)CCSC)[C@@H](C)O)C(=O)NCC(=O)N[C@@H](C)C(=O)N[C@@H](C)C(=O)N[C@@H](Cc1cnc[nH]1)C(=O)N[C@@H](CC(N)=O)C(=O)NCC(=O)N[C@@H](CO)C(=O)N[C@@H](C)C(=O)N[C@@H](CCC(N)=O)C(=O)N[C@@H](CC(C)C)C(=O)N[C@@H](CC(C)C)C(=O)N[C@@H](CCCN=C(N)N)C(=O)N[C@@H](CCC(N)=O)C(=O)N[C@H](CC(C)C)C(=O)N[C@@H](CCCN=C(N)N)C(=O)NCC(=O)N[C@@H](CCC(N)=O)C(=O)N[C@@H](CC(C)C)C(=O)NCC(=O)N1CCC[C@H]1C(=O)N1CCC[C@H]1C(=O)NCC(=O)N[C@@H](CO)C(=O)N[C@@H](CCCN=C(N)N)C(N)=O` gave a concentration for a half-maximal effect (EC50) of 0.6 nM. This EC50 lies about 3.7-fold lower than the previous one.
`CC[C@H](C)[C@H](NC(=O)[C@H](CC(C)C)NC(=O)[C@@H](NC(=O)[C@@H](N)CCSC)[C@@H](C)O)C(=O)NCC(=O)N[C@@H](C)C(=O)N[C@@H](C)C(=O)N[C@@H](Cc1c[nH]cn1)C(=O)N[C@@H](CC(N)=O)C(=O)NCC(=O)N[C@@H](CO)C(=O)N[C@@H](C)C(=O)N[C@@H](CCC(N)=O)C(=O)N[C@@H](CC(C)C)C(=O)N[C@@H](CC(C)C)C(=O)N[C@@H](CCCN=C(N)N)C(=O)N[C@@H](CCC(N)=O)C(=O)N[C@@H](CC(C)C)C(=O)N[C@@H](CCCN=C(N)N)C(=O)NCC(=O)N[C@@H](CCC(N)=O)C(=O)N[C@@H](CC(C)C)C(=O)NCC(=O)N1CCC[C@H]1C(=O)N1CCC[C@H]1C(=O)N[C@@H](C)C(=O)N[C@@H](CO)C(=O)N[C@@H](CCCN=C(N)N)C(N)=O` registered an EC50 of 0.18 nM.
The same measure for H-MTLIGAAHNGSAQLLRQWRGQLGPPGSR-NH2: 0.15 nM.
In turn, `CC[C@H](C)[C@H](NC(=O)[C@H](CC(C)C)NC(=O)[C@@H](NC(=O)[C@@H](N)CCSC)[C@@H](C)O)C(=O)NCC(=O)N[C@@H](C)C(=O)N[C@@H](C)C(=O)N[C@@H](Cc1c[nH]cn1)C(=O)N[C@@H](CC(N)=O)C(=O)NCC(=O)N[C@@H](CO)C(=O)N[C@@H](C)C(=O)N[C@@H](CCC(N)=O)C(=O)N[C@@H](CC(C)C)C(=O)N[C@@H](CC(C)C)C(=O)N[C@@H](CCCN=C(N)N)C(=O)N[C@@H](CCC(N)=O)C(=O)N[C@@H](CC(C)C)C(=O)N[C@@H](CCCN=C(N)N)C(=O)NCC(=O)N[C@@H](CCC(N)=O)C(=O)N[C@@H](CC(C)C)C(=O)NCC(=O)NC(=O)[C@H](C)NC(=O)N1CCC[C@H]1C(=O)NCC(=O)N[C@@H](CO)C(=O)N[C@@H](CCCN=C(N)N)C(N)=O` (H-MTLIGAAHNGSAQLLRQLRGQL-X1) yielded an EC50 of 0.29 nM. This EC50 is about 1.9-fold higher than that of the compound before.
In turn, `CC[C@H](C)[C@H](NC(=O)[C@H](CC(C)C)NC(=O)[C@@H](NC(=O)[C@@H](N)CCSC)[C@@H](C)O)C(=O)NCC(=O)N[C@@H](C)C(=O)N[C@@H](C)C(=O)N[C@@H](Cc1cnc[nH]1)C(=O)N[C@@H](CC(N)=O)C(=O)NCC(=O)N[C@@H](CO)C(=O)N[C@@H](C)C(=O)N[C@@H](CCC(N)=O)C(=O)N[C@@H](CC(C)C)C(=O)N[C@@H](CC(C)C)C(=O)N[C@@H](CCCN=C(N)N)C(=O)N[C@@H](CCC(N)=O)C(=O)N[C@@H](CC(C)C)C(=O)N[C@@H](CCCN=C(N)N)C(=O)N[C@H](C)C(=O)N[C@@H](CCC(N)=O)C(=O)N[C@@H](CC(C)C)C(=O)NCC(=O)N1CCC[C@H]1C(=O)N1CCC[C@H]1C(=O)NCC(=O)N[C@@H](CO)C(=O)N[C@@H](CCCN=C(N)N)C(N)=O` yielded a 50% effective concentration (EC50) of 0.13 nM.
In the case of `CSCC[C@H](N)C(=O)N[C@H](C(=O)N[C@@H](CC(C)C)C(=O)N[C@H](C)C(=O)NCC(=O)N[C@@H](C)C(=O)N[C@@H](C)C(=O)N[C@@H](Cc1c[nH]cn1)C(=O)N[C@@H](CC(N)=O)C(=O)NCC(=O)N[C@@H](CO)C(=O)N[C@@H](C)C(=O)N[C@@H](CCC(N)=O)C(=O)N[C@@H](CC(C)C)C(=O)N[C@@H](CC(C)C)C(=O)N[C@@H](CCCN=C(N)N)C(=O)N[C@@H](CCC(N)=O)C(=O)N[C@@H](CC(C)C)C(=O)N[C@@H](CCCN=C(N)N)C(=O)NCC(=O)N[C@@H](CCC(N)=O)C(=O)N[C@@H](CC(C)C)C(=O)NCC(=O)N1CCC[C@H]1C(=O)N1CCC[C@H]1C(=O)NCC(=O)N[C@@H](CO)C(=O)N[C@@H](CCCN=C(N)N)C(N)=O)[C@@H](C)O`, the concentration giving a half-maximal response (EC50) is above 390 nM.
The same measure for `CC[C@H](C)[C@H](NC(=O)[C@H](CC(C)C)NC(=O)[C@@H](NC(=O)[C@@H](N)CCSC)[C@@H](C)O)C(=O)NCC(=O)N[C@@H](C)C(=O)N[C@@H](C)C(=O)N[C@@H](Cc1c[nH]cn1)C(=O)N[C@@H](CC(N)=O)C(=O)NCC(=O)N[C@@H](CO)C(=O)N[C@@H](C)C(=O)N[C@@H](CCC(N)=O)C(=O)N[C@@H](CC(C)C)C(=O)N[C@@H](CC(C)C)C(=O)N[C@@H](CCCN=C(N)N)C(=O)N[C@@H](CCC(N)=O)C(=O)N[C@@H](CC(C)C)C(=O)N[C@@H](CCCN=C(N)N)C(=O)NCC(=O)N[C@@H](CCC(N)=O)C(=O)N[C@@H](CC(C)C)C(=O)N[C@H](C)C(=O)N1CCC[C@H]1C(=O)N1CCC[C@H]1C(=O)NCC(=O)N[C@@H](CO)C(=O)N[C@@H](CCCN=C(N)N)C(N)=O`: 0.2 nM; for `CC[C@H](C)[C@H](NC(=O)[C@H](CC(C)C)NC(=O)[C@@H](NC(=O)[C@H](N)CCSC)[C@@H](C)O)C(=O)NCC(=O)N[C@@H](C)C(=O)N[C@@H](C)C(=O)N[C@@H](Cc1c[nH]cn1)C(=O)N[C@@H](CC(N)=O)C(=O)NCC(=O)N[C@@H](CO)C(=O)N[C@@H](C)C(=O)N[C@@H](CCC(N)=O)C(=O)N[C@@H](CC(C)C)C(=O)N[C@@H](CC(C)C)C(=O)N[C@@H](CCCN=C(N)N)C(=O)N[C@@H](CCC(N)=O)C(=O)N[C@@H](CC(C)C)C(=O)N[C@@H](CCCN=C(N)N)C(=O)NCC(=O)N[C@@H](CCC(N)=O)C(=O)N[C@@H](CC(C)C)C(=O)NCC(=O)N1CCC[C@H]1C(=O)N1CCC[C@H]1C(=O)NCC(=O)N[C@@H](CO)C(=O)N[C@@H](CCCN=C(N)N)C(N)=O`: above 290 nM.
For `CC[C@H](C)[C@H](NC(=O)[C@H](CC(C)C)NC(=O)[C@H](NC(=O)[C@@H](N)CCSC)[C@@H](C)O)C(=O)NCC(=O)N[C@@H](C)C(=O)N[C@@H](C)C(=O)N[C@@H](Cc1cnc[nH]1)C(=O)N[C@@H](CC(N)=O)C(=O)NCC(=O)N[C@@H](CO)C(=O)N[C@@H](C)C(=O)N[C@@H](CCC(N)=O)C(=O)N[C@@H](CC(C)C)C(=O)N[C@@H](CC(C)C)C(=O)N[C@@H](CCCN=C(N)N)C(=O)N[C@@H](CCC(N)=O)C(=O)N[C@@H](CC(C)C)C(=O)N[C@@H](CCCN=C(N)N)C(=O)NCC(=O)N[C@@H](CCC(N)=O)C(=O)N[C@@H](CC(C)C)C(=O)NCC(=O)N1CCC[C@H]1C(=O)N1CCC[C@H]1C(=O)NCC(=O)N[C@@H](CO)C(=O)N[C@@H](CCCN=C(N)N)C(N)=O`, the concentration for a half-maximal effect (EC50) is above 260 nM.
The same measure for H-MALIGAAHNGSAQLLRQLRGQLGPPGSR-NH2: 9.7 nM.
